Our source for the IC50 values is paper PMC3563091 (Bioorganic & medicinal chemistry letters, 2012).

The target in the assay is CMG2 (Capillary Morphogenesis Gene protein 2) (Homo sapiens, UniProt P58335, R40C). It is filed as binding.
Chain of CMG2 (Capillary Morphogenesis Gene protein 2) (P58335 34-489 R40C limits assumed): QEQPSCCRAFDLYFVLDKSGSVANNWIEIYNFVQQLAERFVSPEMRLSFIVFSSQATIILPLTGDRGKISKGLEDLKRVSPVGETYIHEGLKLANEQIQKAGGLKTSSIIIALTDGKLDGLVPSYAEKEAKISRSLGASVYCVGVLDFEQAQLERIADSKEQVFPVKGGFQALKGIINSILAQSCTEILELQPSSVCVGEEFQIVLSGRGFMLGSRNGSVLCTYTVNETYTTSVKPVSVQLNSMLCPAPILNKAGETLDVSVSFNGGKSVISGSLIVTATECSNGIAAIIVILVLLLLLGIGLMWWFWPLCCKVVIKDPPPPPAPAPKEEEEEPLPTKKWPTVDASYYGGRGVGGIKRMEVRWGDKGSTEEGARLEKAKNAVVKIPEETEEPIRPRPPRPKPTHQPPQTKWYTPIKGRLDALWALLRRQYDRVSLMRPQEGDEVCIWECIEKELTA

By IC50 is commonly meant the midpoint of a concentration-inhibition curve. Higher therefore signals lower potency. Take 7-O-methyl neolambertellin [compound 1]: the IC50 was determined as 500 nM.
